{
  "source": "patent US20240374623A1",
  "about": "“TKTL1 INHIBITORS FOR ANTIVIRAL THERAPY” (Tavargenix GmbH, priority 2021, published 2024)",
  "key": {"[1]": {"tested_on": "human cytomegalovirus (HCMV)", "assay": "HCMV-EYFP replication in human embryonic lung fibroblasts (HEL), fluorescence-based antiviral assay", "type": "cell-based", "settings": "HCMV-EYFP-infected HEL cells, 48 h incubation; read-out: 50% inhibitory concentration (IC50), EYFP emission reduced by half", "method": "Furthermore, the sensitivity of HCMV replication to B-OT in human mammalian cells was investigated. For this purpose, experiments were performed as described in the work of Dal Pozzo et al. 2008 with B-OT: Human embryonic lung fibroblasts (HEL) were infected with recombinant HCMV EYFP viruses additionally encoding enhanced yellow fluorescent protein (EYFP) (Dal Pozzo F, et al., 2008). As a measure of viral replication after infection with HCMV-EYFP, the emission of the EYFP protein was measured (excitation wavelength: 485 nm/emission: 530 nm). The constant and low cell-associated background emission measured in an automated manner was subtracted from the fluorescence emission value. To test the antiviral effect of B-OT, HCMV-EYFP-infected cells were incubated for 48 h with different B-OT concentrations (0 to 20 mM B-OT). Dose-dependent inhibition of fluorescence (as a measure of viral replication) was evident. The required compound concentration that reduced EYFP emission by half compared with untreated controls (0 mM B-OT) was defined as the 50% inhibitory concentration (IC50) in the fluorescence-based antiviral assay. The IC50 determined here was 0.5 mM B-OT."}, "[2]": {"tested_on": "SARS-CoV-2", "assay": "Individual curative trials in hospitalized COVID-19 patients: viral load by PCR", "type": "in vivo, human", "settings": "daily less than 20 mg B-OT per 70 kg body weight over 7 days"}, "[3]": {"tested_on": "C-reactive protein (CRP)", "assay": "Individual curative trials in hospitalized COVID-19 patients: C-reactive protein level", "type": "in vivo, human", "set-up": "unit not given here"}, "[4]": {"tested_on": "interleukin-6 (IL-6)", "assay": "Individual curative trials in hospitalized COVID-19 patients: interleukin-6 level", "type": "in vivo, human"}, "[5]": {"assay": "In vivo pharmacokinetics: blood-brain barrier penetration", "settings": "in vivo pharmacokinetics data", "source_text": "A preferred inhibitory thiamine analog is the substance benfo-oxythiamine (B-OT). B-OT is a precursor (“pro-pharmacon”, “prodrug”) of oxythiamine, can be applied orally and releases oxythiamine shortly after its uptake into the mammalian organism. Via the bloodstream, B-OT can reach all cells in all parts of the body."}, "[6]": {"tested_on": "SARS-CoV-2", "type": "cell-based", "settings": "25 μM resveratrol for 48 h, Caco-2 cells"}, "[7]": {"tested_on": "TKTL1 mRNA", "type": "cell-based, human", "settings": "different resveratrol concentrations, 24 h"}, "[8]": {"tested_on": "SARS-CoV-2 infected Caco-2 cells", "settings": "human"}, "[9]": {"tested_on": "TKTL1 promoter", "set-up": "dose or concentration left out as unconfirmed", "settings": "HeLa cells, resveratrol for 48 h; cited from earlier work"}, "[10]": {"tested_on": "HeLa cells", "settings": "cited from earlier work"}, "[11]": {"settings": "daily less than 20 mg B-OT per 70 kg, after 7 days"}, "[12]": {"settings": "hospitalized COVID-19 patients, start of therapy"}},
  "data": [
    {"smiles": "C/C(=C(\\CCOP(=O)(O)O)SC(=O)c1ccccc1)N(C=O)Cc1cnc(C)[nH]c1=O", "note": "[B-OT, benfo-oxythiamine]", "values": [
      {"measurement": "IC50", "setting": "[1]", "value": 500, "unit": "µM"},
      {"measurement": "viral load as detected by PCR", "setting": "[2]", "value": "significant reduction in viral load"},
      {"measurement": "average CRP level under 7-day B-OT therapy", "setting": "[3]; [11]", "value": 5},
      {"measurement": "average CRP level before B-OT therapy", "setting": "[3]; [12]", "value": 77},
      {"measurement": "average IL-6 level under 7-day B-OT therapy", "setting": "[4]; [11]", "value": 5, "unit": "pg/mL"},
      {"measurement": "average IL-6 level before B-OT therapy", "setting": "[4]; [12]", "value": 63, "unit": "pg/mL"}
    ]},
    {"smiles": "Cc1ncc(C[n+]2csc(CCO)c2C)c(=O)[nH]1", "note": "[oxythiamine]", "values": [
      {"measurement": "blood-brain barrier penetration", "setting": "[5]", "value": "can penetrate the blood-brain barrier"}
    ]},
    {"smiles": "Oc1ccc(C=Cc2cc(O)cc(O)c2)cc1", "note": "[resveratrol]", "values": [
      {"measurement": "decrease of replication ability of SARS-CoV-2 viruses compared to the control", "setting": "[6]", "value": 68, "unit": "%"},
      {"measurement": "reduction of TKTL1 mRNA", "setting": "[7]", "value": "the higher the concentration the stronger the reduction"},
      {"measurement": "viability of Caco-2 cells", "setting": "[8]", "value": 93, "unit": "%"},
      {"measurement": "reduction in TKTL1 promoter activity compared to untreated cells", "setting": "[9]", "value": 75, "unit": "%"},
      {"measurement": "viability of HeLa cells", "setting": "[10]", "value": "significant decrease in the viability of HeLa cells"}
    ]}
  ]
}
